Reference: ChEMBL document CHEMBL3046468, “Synthesis, characterization and in vitro hydrolysis studies of ester and amide prodrugs of dexibuprofen” (Med Chem Res, 2012)

Key:
[1] = Half life in 80% Homo sapiens (human) plasma at pH 7.4 at 10 mg; type: ADME, cell-free; conditions: 80% human plasma
[2] = Solubility of the compound in chloroform at 5 mg; type: physicochemical
[3] = Half life in PBS at pH 7.4 by spectrophotometric analysis; type: ADME
[4] = Solubility of the compound in ethanol at 5 mg; type: physicochemical
[5] = Solubility of the compound in 0.1 N HCl at 5 mg; type: physicochemical; conditions: buffer
[6] = Solubility of the compound in DMF at 5 mg; type: physicochemical
[7] = Solubility of the compound in 0.1 N NaOH at 5 mg; type: physicochemical
[8] = Protein binding to 6% egg albumin at 20 ug/ml; conditions: read-out: PPB (converted)
[9] = Solubility of the compound in ethyl acetate at 5 mg; type: physicochemical
[10] = Prodrug activation in simulated gastric fluid assessed as dexibuprofen regeneration rate at 10 mg by HPLC analysis; conditions: in vitro
[11] = Solubility of the compound in 0.1 N NaOH; type: physicochemical
[12] = Solubility of the compound in chloroform; type: physicochemical
[13] = Solubility of the compound in ethyl acetate; type: physicochemical
[14] = Solubility of the compound in DMF; type: physicochemical
[15] = Solubility of the compound in ethanol; type: physicochemical
[16] = Solubility of the compound in 0.1 N HCl; type: physicochemical; conditions: buffer

| Structure (SMILES) | half-life [1] [h] | solubility [2] | half-life [3] [h] | solubility [4] | solubility [5] | solubility [6] | solubility [7] | fraction unbound at 20 ug/ml [8] | solubility [9] | Drug metabolism [10] | solubility [11] | solubility [12] | solubility [13] | solubility [14] | solubility [15] | solubility [16] |
| --- | --- | --- | --- | --- | --- | --- | --- | --- | --- | --- | --- | --- | --- | --- | --- | --- |
| CC(C)Cc1ccc(C(C)C(=O)OC(C)C)cc1 (stereo unspecified) | 0.65 | soluble | 2.1 | soluble | Insoluble | soluble | soluble | 0.35 | soluble | Not Active |  |  |  |  |  |  |
| CCCCOC(=O)C(C)c1ccc(CC(C)C)cc1 (stereo unspecified) | 0.483 | soluble | 2.1 | soluble | Insoluble | soluble | soluble | 0.65 | soluble | Not Active |  |  |  |  |  |  |
| CCC(C)OC(=O)C(C)c1ccc(CC(C)C)cc1 (stereo unspecified) | 0.65 | soluble | 2.1 | soluble | Insoluble | soluble | soluble | 0.33 | soluble | Not Active |  |  |  |  |  |  |
| CC(C)Cc1ccc(C(C)C(=O)OCc2ccccc2)cc1 (stereo unspecified) | 0.65 | soluble | 2.1 | soluble | Insoluble | soluble | soluble | 0.63 | soluble | Not Active |  |  |  |  |  |  |
| CC(C)Cc1ccc(C(C)C(=O)OCC(O)CO)cc1 (stereo unspecified) | 0.483 | soluble | 2.1 | soluble | Insoluble | soluble | soluble | 0.77 | soluble | Not Active |  |  |  |  |  |  |
| COC(=O)CNC(=O)C(C)c1ccc(CC(C)C)cc1 (stereo unspecified) | 0.883 | soluble | 2.58 | soluble | Insoluble | soluble | soluble | 0.76 | soluble | Not Active |  |  |  |  |  |  |
| COC(=O)C(C)NC(=O)C(C)c1ccc(CC(C)C)cc1 (stereo unspecified) | 0.883 | soluble | 2.58 | soluble | Insoluble | soluble | soluble | 0.64 | soluble | Not Active |  |  |  |  |  |  |
| COC(=O)C(NC(=O)C(C)c1ccc(CC(C)C)cc1)C(C)C (stereo unspecified) | 0.883 | soluble | 3.3 | soluble | Insoluble | soluble | soluble | 0.55 | soluble | Not Active |  |  |  |  |  |  |
| COC(=O)C(CC(C)C)NC(=O)C(C)c1ccc(CC(C)C)cc1 (stereo unspecified) | 0.883 | soluble | 3.16 | soluble | Insoluble | soluble | soluble | 0.49 | soluble | Not Active |  |  |  |  |  |  |
| COC(=O)C(Cc1ccccc1)NC(=O)C(C)c1ccc(CC(C)C)cc1 (stereo unspecified) | 0.883 | soluble | 2.97 | soluble | Insoluble | soluble | soluble | 0.53 | soluble | Not Active |  |  |  |  |  |  |
| CC(C)Cc1ccc([C@H](C)C(=O)O)cc1 [DEXIBUPROFEN] |  |  |  |  |  |  |  |  |  |  | soluble | soluble | soluble | soluble | soluble | Insoluble |
